Patent US20240246979A1, “cGAS INHIBITORS” (Eli Lilly and Company, priority 2022, published 2024)

Experiments:
cGAS [1] = biological target: T1, cGAS (Homo sapiens, UniProt Q8N884); assay: Cellular assay to measure cGAS activity (IFNb AlphaLISA in THP1 cells stimulated by RDG-Adenovirus-GFP); format: cell-based; parameters: host or cells: THP1 cells differentiated with PMA and stimulated with RDG-Adenovirus-GFP; conditions: PMA-differentiated THP1 cells, RDG-Adenovirus-GFP at 1000 MOI; inhibition of IFNb production as marker for cGAS activity
T1 sequence (Q8N884 whole entry): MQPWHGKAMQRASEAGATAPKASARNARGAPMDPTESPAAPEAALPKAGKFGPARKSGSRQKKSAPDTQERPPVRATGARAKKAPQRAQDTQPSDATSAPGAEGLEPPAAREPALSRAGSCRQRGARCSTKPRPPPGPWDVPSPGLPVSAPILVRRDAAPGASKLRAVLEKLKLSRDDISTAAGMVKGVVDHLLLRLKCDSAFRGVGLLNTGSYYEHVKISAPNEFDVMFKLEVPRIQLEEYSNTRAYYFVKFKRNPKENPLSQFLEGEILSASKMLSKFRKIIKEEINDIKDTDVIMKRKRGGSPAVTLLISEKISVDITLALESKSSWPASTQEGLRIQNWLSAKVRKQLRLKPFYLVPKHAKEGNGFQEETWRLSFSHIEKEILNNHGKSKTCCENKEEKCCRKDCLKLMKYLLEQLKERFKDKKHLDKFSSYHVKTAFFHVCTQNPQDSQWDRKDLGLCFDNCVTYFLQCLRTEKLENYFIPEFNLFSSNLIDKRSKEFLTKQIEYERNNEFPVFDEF
Protocol: Cellular assay to measure cGAS activity: Use THP1 cell line from ATCC to determine inhibition of cGAS activity by test compounds in human cells. Plate cells on 96-well plates at 0.2×10^6/well and differentiate with phorbol myristate acetate (PMA) at 37° C./5% CO2. After 24 hours, replace PMA containing media with media lacking PMA and further incubate overnight. Stimulate cells were then by RDG-Adenovirus-GFP (Vector Biolabs #1768) at 1000 MOI for 4 hours prior to the addition of test compounds. After overnight incubation, transfer 10 μL of the media from each well to a new plate for IFNb analysis as a marker for cGAS activity. Measure quantification of IFNb with an IFNb AlphaLISA Detection kit (Perkin Elmer AL3133F) by mixing the acceptor beads with the cell supernatant followed by the addition of the biotinylated antibody and donor beads. Measure the relative fluorescence signal produced from the interaction of the donor and acceptor beads by a PHERAStar AlphaLISA protocol and evaluate the inhibitory effect of a compound by plotting specific inhibition of IFNb production against log concentration of the test compound. Calculate IC50 values using a 4-parameter non-linear logistic equation (y=(S0+((SInf−S0)/(1+((qAC50/x)^nHill))))).

cGAS [2] = biological target: T1, cGAS; assay: In vitro inhibition assay of cGAS activity (cGAMP production, RapidFire mass spectrometry); format: biochemical; parameters: Insert cDNA encoding full-length of human cGAS; His6; made in house; host or cells: E. coli BL21(DE3); conditions: 10 nM recombinant human cGAS, 60 nM 75-bp dsDNA, 50 μM ATP, 50 μM GTP, 3 hrs
Protocol: Expression and Purification of Recombinant cGAS Protein: Insert cDNA encoding full-length of human cGAS into a modified bacterial expression vector containing an in-frame His6-tag. Induce the E. coli strain BL21(DE3) harboring the plasmid with 1 mM IPTG (Isopropyl β-D-1-thiogalactopyranoside) at 18° C. overnight. Purify the His6-tagged cGAS protein over HISpur Ni-NTA resin in the presence of benzonase and RNase followed by Superdex 200 size exclusion chromatography with storage buffer (50 mM Tris-HCl pH 7.5, 300 mM NaCl, 1 mM DTT, 10% glycerol).
In vitro inhibition assay of cGAS activity: Add a 5 μL mixture containing 10 mM Tris-Cl pH 7.5, 50 mM NaCl, 5 mM MgCl2, 1 mM DTT, 0.01% Triton X-100, 60 nM 75-bp dsDNA, 50 μM ATP, 50 μM GTP, 10 nM of recombinant human cGAS, and serial dilutions of a test compound in DMSO to a 384-well plate and incubate at ambient temperature for 3 hrs. Quench the reaction by the addition of 100 μL of stop solution containing 0.1% formic acid and 0.1 μM internal standard (3′3′-difluoro cGAMP). Measure the amount of cGAMP produced by RapidFire 365 mass spectrometry and evaluate inhibitory effect of a compound by plotting percent specific inhibition of cGAMP production against log concentration of the test compound. Calculate IC50 values using a 4-parameter non-linear logistic equation (y=(S0+((Sinf−S0)/(1+((qAC50/x)^nHill))))).

IC50 (cGAS [1]) [nM]	IC50 (cGAS [2]) [nM]	SMILES
> 10000	110	O=C1Cc2c([nH]c3c(Cl)c(Cl)cc(-c4cnco4)c23)CCN1 [Example 27, 7,8-Dichloro-10-(oxazol-5-yl)-3,4,5,6-tetrahydroazepino[4,5-b]indol-2(1H)-one]
> 10000	6440	C[C@H](O)C(=O)Nc1cc(Cl)c(Cl)c2[nH]c3c(c12)[C@@H](C)C(=O)NCC3 (single isomer, unassigned) [Example 42]
1130	26.2	COCC[C@@H]1CNC(=O)[C@@H](C)c2c1[nH]c1c(Cl)c(Cl)cc(NCCO)c21 (racemic) [Example 169, trans-7,8-Dichloro-10-((2-hydroxyethyl)amino)-5-(2-methoxyethyl)-1-methyl-3,4,5,6-tetrahydroazepino[4,5-b]indol-2(1H)-one]
1470	38.6	CC1C(=O)NCCc2[nH]c3c(Cl)c(Cl)cc(OCC(F)F)c3c21 (racemic) [Example 76, 7,8-Dichloro-10-(2,2-difluoroethoxy)-1-methyl-3,4,5,6-tetrahydroazepino[4,5-b]indol-2(1H)-one]
420	19	Cn1ncc(-c2cc(Cl)c(Cl)c3[nH]c4c(c23)CC(=O)NCC4CCO)n1 (racemic) [Example 8, 7,8-Dichloro-5-(2-hydroxyethyl)-10-(2-methyl-2H-1,2,3-triazol-4-yl)-3,4,5,6-tetrahydroazepino[4,5-b]indol-2(1H)-one]
1740	37.3	N#CCc1cc(Cl)c(Cl)c2[nH]c3c(c12)CC(=O)NCC3CCO (stereo not drawn) [Example 113, 2-(7,8-Dichloro-5-(2-hydroxyethyl)-2-oxo-1,2,3,4,5,6-hexahydroazepino[4,5-b]indol-10-yl)acetonitrile]
1130	30.4	C[C@@H](O)CNc1cc(Cl)c(Cl)c2c1c1c(n2C)CCNC(=O)[C@@H]1C (single isomer, unassigned) [Example 100]
> 10000	2000	CC1C(=O)NCCc2[nH]c3c(Cl)c(Cl)cc(NCc4cocn4)c3c21 (stereo in doubt) [Example 59, (S′)-7,8-Dichloro-1-methyl-10-((oxazol-4-ylmethyl)amino)-3,4,5,6-tetrahydroazepino[4,5-b]indol-2(1H)-one Or (R)-7,8-Dichloro-1-methyl-10-((oxazol-4-ylmethyl)amino)-3,4,5,6-tetrahydroazepino[4,5-b]indol-2(1H)-one]
2640	33.4	Cn1ncc(-c2cc(Cl)c(F)c3[nH]c4c(c23)CC(=O)NCC4)n1 [Example 1, 8-Chloro-7-fluoro-10-(2-methyl-2H-1,2,3-triazol-4-yl)-3,4,5,6-tetrahydroazepino[4,5-b]indol-2(1H)-one]
287	12.3	C[C@H]1C(=O)NCCc2c1c1c(NC(=O)CO)cc(Cl)c(Cl)c1n2C(F)F (single isomer, unassigned) [Example 145, (R)—N-(7,8-Dichloro-6-(difluoromethyl)-1-methyl-2-oxo-1,2,3,4,5,6-hexahydroazepino[4,5-b]indol-10-yl)-2-hydroxyacetamide or (S)—N-(7,8-Dichloro-6-(difluoromethyl)-1-methyl-2-oxo-1,2,3,4,5,6-hexahydroazepino[4,5-b]indol-10-yl)-2-hydroxyacetamide]
300	27.2	C[C@@H]1CNC(=O)Cc2c1[nH]c1c(Cl)c(Cl)cc(-c3cnn(C)n3)c21 (single isomer, unassigned) [Example 146]
1390	60.6	C[C@@H]1CNC(=O)[C@H](C)c2c1[nH]c1c(Cl)c(Cl)cc(NC(=O)CO)c21 (relative stereo) [Example 159, cis-N-(7,8-dichloro-1,5-dimethyl-2-oxo-1,2,3,4,5,6-hexahydroazepino[4,5-b]indol-10-yl)-2-hydroxyacetamide]
974	53.3	CC1C(=O)NCCc2[nH]c3c(Cl)c(Cl)cc(NC4COC4)c3c21 (racemic) [Example 60, 7,8-Dichloro-1-methyl-10-(oxetan-3-ylamino)-3,4,5,6-tetrahydroazepino[4,5-b]indol-2(1H)-one]
820	20	C[C@H]1C(=O)NCC(C)(C)c2[nH]c3c(Cl)c(Cl)cc(NC(=O)CO)c3c21 (single isomer, unassigned) [Example 133]
1620	23.1	CCC1CNC(=O)Cc2c1[nH]c1c(Cl)c(Cl)cc(NCCO)c21 (stereo not drawn) [Example 163, 7,8-Dichloro-5-ethyl-10-((2-hydroxyethyl)amino)-3,4,5,6-tetrahydroazepino[4,5-b]indol-2(1H)-one]
1370	17.4	COCCOc1cc(Cl)c(Cl)c2[nH]c3c(c12)[C@H](C)C(=O)NCC3(C)C (single isomer, unassigned) [Example 184, (S)-7,8-Dichloro-10-(2-methoxyethoxy)-1,5,5-trimethyl-3,4,5,6-tetrahydroazepino[4,5-b]indol-2(1H)-one or (R)-7,8-dichloro-10-(2-methoxyethoxy)-1,5,5-trimethyl-3,4,5,6-tetrahydroazepino[4,5-b]indol-2(1H)-one]
256	13	C[C@@H]1CNC(=O)[C@@H](C)c2c1[nH]c1c(Cl)c(Cl)cc(NC(=O)CO)c21 (single isomer, unassigned) [Example 160, N-((1S,5R)-7,8-Dichloro-1,5-dimethyl-2-oxo-1,2,3,4,5,6-hexahydroazepino[4,5-b]indol-10-yl)-2-hydroxyacetamide or N-((1R,5S)-7,8-Dichloro-1,5-dimethyl-2-oxo-1,2,3,4,5,6-hexahydroazepino[4,5-b]indol-10-yl)-2-hydroxyacetamide]
1200	20.4	Nc1noc(-c2cc(Cl)c(Cl)c3[nH]c4c(c23)CC(=O)NCC4)n1 [Example 33, 10-(3-Amino-1,2,4-oxadiazol-5-yl)-7,8-dichloro-3,4,5,6-tetrahydroazepino[4,5-b]indol-2(1H)-one]
> 10000	1810	C[C@@H]1CNC(=O)[C@H](C)c2c1[nH]c1c(Cl)c(Cl)cc(NCCO)c21 (single isomer, unassigned) [Example 156]
> 10000	18.6	COCCNc1cc(Cl)c(Cl)c2c1c1c(n2C)CCNC(=O)C1C (stereo not drawn) [Example 96, 7,8-Dichloro-10-((2-methoxyethyl)amino)-1,6-dimethyl-3,4,5,6-tetrahydroazepino[4,5-b]indol-2(1H)-one]
> 10000	1260	C[C@@H](O)CNc1cc(Cl)c(Cl)c2c1c1c(n2C)CCNC(=O)[C@@H]1C (single isomer, unassigned) [Example 101]

SMILES	IC50 (cGAS [1]) [nM]	IC50 (cGAS [2]) [nM]
CC[C@H]1C(=O)NCCc2[nH]c3c(Cl)c(Cl)cc(OCC#N)c3c21 (single isomer, unassigned) [Example 36]	1200	3950
CC(F)(F)C[C@@H]1CNC(=O)Cc2c1[nH]c1c(Cl)c(Cl)cc(CC#N)c21 (single isomer, unassigned) [Example 139]	4610	824
C[C@H]1C(=O)NCCc2[nH]c3c(Cl)c(Cl)cc(N[C@@H]4CCOC4)c3c21 (single isomer, unassigned) [Example 65]	≥ 10000	890
CC(C)(O)C[C@@H]1CNC(=O)Cc2c1[nH]c1c(Cl)c(Cl)cc(OCC#N)c21 (single isomer, unassigned) [Example 109]	1860	159
C[C@@H]1C(=O)NCCc2[nH]c3c(Cl)c(Cl)cc(N[C@H]4CCOC4)c3c21 (single isomer, unassigned) [Example 62]	1900	44.5
CC(F)(F)C[C@@H]1CNC(=O)Cc2c1[nH]c1c(Cl)c(Cl)cc(CC#N)c21 (single isomer, unassigned) [Example 138]	431	8
